Reference: patent publication US20170050957A1, “4-AMINO-6-(HETEROCYCLIC)PICOLINATES AND 6-AMINO-2-(HETEROCYCLIC)PYRIMIDINE-4-CARBOXYLATES AND THEIR USE AS HERBICIDES” (Dow AgroSciences LLC, priority 2013, published 2017)
Where two headings read alike, the source gives them in different places.

Legend:
[1] = test system: Key Grass and Sedge Weeds as well as Grass Crops; test: Post-emergent Test II herbicidal activity (Table 16); format: in vivo; details: post-emergence, 336 h, 14 d; for pest or weed control at 35 g/ha: 35 g ai/ha; for pest or weed control at 70 g/ha: 70 g ai/ha; for pest or weed control at 140 g/ha: 140 g ai/ha
In short: (§1)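 Visual injury rating (0 = none, 100 = complete kill) taken 14 d after treatment, relative to untreated plants. Compounds in acetone/DMSO with crop oil concentrate and Triton X-155 were track-sprayed at 187 L/ha onto seedlings at the first-second true leaf stage.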

[2] = test system: Key Broadleaf Weed and Crop Species; test: Post-emergent Test II herbicidal activity (Table 15); format: in vivo; details: post-emergence, 336 h, 14 d; for pest or weed control at 35 g/ha: 35 g ai/ha; for pest or weed control at 70 g/ha: 70 g ai/ha; for pest or weed control at 140 g/ha: 140 g ai/ha
In short: as §1

[3] = Cyperus esculentus, yellow nutsedge (Cyperus esculentus), read-out: Visual Growth Reduction (%) 14 Days After Application, CYPES
[4] = Echinochloa crus-galli, barnyardgrass (Echinochloa crus-galli), read-out: Visual Growth Reduction (%) 14 Days After Application, ECHCG
[5] = Oryza sativa, rice (Oryza sativa), read-out: Visual Growth Reduction (%) 14 Days After Application, ORYSA
[6] = Setaria faberi, giant foxtail (Setaria faberi), read-out: Visual Growth Reduction (%) 14 Days After Application, SETFA
[7] = Triticum aestivum, wheat, spring (Triticum aestivum), read-out: Visual Growth Reduction (%) 14 Days After Application, TRZAS
[8] = Zea mays, maize, corn (Zea mays), read-out: Visual Growth Reduction (%) 14 Days After Application, ZEAMX
[9] = Abutilon theophrasti, velvetleaf (Abutilon theophrasti), read-out: Visual Growth Reduction (%) 14 Days After Application, ABUTH
[10] = Amaranthus retroflexus, redroot pigweed (Amaranthus retroflexus), read-out: Visual Growth Reduction (%) 14 Days After Application, AMARE
[11] = Brassica napus, oilseed rape, canola (Brassica napus), read-out: Visual Growth Reduction (%) 14 Days After Application, BRSNN
[12] = Chenopodium album, lambsquarters (Chenopodium album), read-out: Visual Growth Reduction (%) 14 Days After Application, CHEAL
[13] = Euphorbia heterophylla, wild poinsettia (Euphorbia heterophylla), read-out: Visual Growth Reduction (%) 14 Days After Application, EPHHL
[14] = Helianthus annuus, sunflower (Helianthus annuus), read-out: Visual Growth Reduction (%) 14 Days After Application, HELAN

melting point [°C] | Structure (SMILES) | pest or weed control at 35 g/ha [1, 3] [%] | pest or weed control at 70 g/ha [1, 3] [%] | pest or weed control at 140 g/ha [1, 3] [%] | pest or weed control at 35 g/ha [1, 4] [%] | pest or weed control at 140 g/ha [1, 4] [%] | pest or weed control at 35 g/ha [1, 5] [%] | pest or weed control at 70 g/ha [1, 5] [%] | pest or weed control at 140 g/ha [1, 5] [%] | pest or weed control at 35 g/ha [1, 6] [%] | pest or weed control at 70 g/ha [1, 6] [%] | pest or weed control at 140 g/ha [1, 6] [%] | pest or weed control at 35 g/ha [1, 7] [%] | pest or weed control at 70 g/ha [1, 7] [%] | pest or weed control at 140 g/ha [1, 7] [%] | pest or weed control at 35 g/ha [1, 8] [%] | pest or weed control at 70 g/ha [1, 8] [%] | pest or weed control at 140 g/ha [1, 8] [%] | pest or weed control at 35 g/ha [2, 9] [%] | pest or weed control at 70 g/ha [2, 9] [%] | other results
172 to 174 | Nc1cc(-c2ccc3cc[nH]c3c2)nc(C(=O)O)c1Cl [Compound 1.22] | 0 to 29 | 0 to 29 | 0 to 29 | 0 to 29 | 0 to 29 | 0 to 29 | 0 to 29 | 0 to 29 | 0 to 29 | 60 to 74 | 85 to 94 | 0 to 29 | 0 to 29 | 0 to 29 | 0 to 29 | 0 to 29 | 0 to 29 | 0 to 29 | 0 to 29 | pest or weed control at 70 g/ha [1, 4]: 0 to 29%; pest or weed control at 140 g/ha [2, 9]: 0 to 29%; pest or weed control at 35 g/ha [2, 10]: 75 to 84%; pest or weed control at 70 g/ha [2, 10]: 75 to 84%; pest or weed control at 140 g/ha [2, 10]: 85 to 94%; pest or weed control at 35 g/ha [2, 11]: 45 to 59%; pest or weed control at 70 g/ha [2, 11]: 60 to 74%; pest or weed control at 140 g/ha [2, 11]: 60 to 74%; pest or weed control at 35 g/ha [2, 12]: 0 to 29%; pest or weed control at 70 g/ha [2, 12]: 0 to 29%; pest or weed control at 140 g/ha [2, 12]: 0 to 29%; pest or weed control at 35 g/ha [2, 13]: 45 to 59%; pest or weed control at 70 g/ha [2, 13]: 75 to 84%; pest or weed control at 140 g/ha [2, 13]: 85 to 94%; pest or weed control at 35 g/ha [2, 14]: 75 to 84%; pest or weed control at 70 g/ha [2, 14]: 85 to 94%; pest or weed control at 140 g/ha [2, 14]: 85 to 94%
169 to 171 | COC(=O)c1nc(-c2c(F)cc3cc[nH]c3c2F)cc(N)c1Cl [Compound 1.27, Methyl 4-amino-3-chloro-6-(5,7-difluoro-1H-indol-6-yl)picolinate] | 0 to 29 | 0 to 29 | 0 to 29 | 0 to 29 | 0 to 29 | 0 to 29 | 0 to 29 | 0 to 29 | 0 to 29 | 0 to 29 | 0 to 29 | 0 to 29 | 0 to 29 | 0 to 29 | 0 to 29 | 0 to 29 | 0 to 29 | 60 to 74 | 85 to 94 | pest or weed control at 70 g/ha [1, 4]: 0 to 29%; pest or weed control at 140 g/ha [2, 9]: 85 to 94%; pest or weed control at 35 g/ha [2, 10]: 60 to 74%; pest or weed control at 70 g/ha [2, 10]: 95 to 100%; pest or weed control at 140 g/ha [2, 10]: 95 to 100%; pest or weed control at 35 g/ha [2, 11]: 85 to 94%; pest or weed control at 70 g/ha [2, 11]: 95 to 100%; pest or weed control at 140 g/ha [2, 11]: 95 to 100%; pest or weed control at 35 g/ha [2, 12]: 85 to 94%; pest or weed control at 70 g/ha [2, 12]: 85 to 94%; pest or weed control at 140 g/ha [2, 12]: 85 to 94%; pest or weed control at 35 g/ha [2, 13]: 95 to 100%; pest or weed control at 70 g/ha [2, 13]: 95 to 100%; pest or weed control at 140 g/ha [2, 13]: 95 to 100%; pest or weed control at 35 g/ha [2, 14]: 0 to 29%; pest or weed control at 70 g/ha [2, 14]: 0 to 29%; pest or weed control at 140 g/ha [2, 14]: 0 to 29%
166 to 168 | Cn1ccc2cc(-c3nc(C(=O)O)c(Cl)c(N)c3F)ccc21 [Compound 1.01] | 0 to 29 | 0 to 29 | 0 to 29 | 0 to 29 | 75 to 84 | 0 to 29 | 0 to 29 | 0 to 29 | 0 to 29 | 0 to 29 | 0 to 29 | 0 to 29 | 0 to 29 | 0 to 29 | 0 to 29 | 95 to 100 | 85 to 94 | 0 to 29 | 0 to 29 | pest or weed control at 140 g/ha [2, 9]: 30 to 44%; pest or weed control at 70 g/ha [2, 10]: 0 to 29%; pest or weed control at 140 g/ha [2, 10]: 45 to 59%; pest or weed control at 35 g/ha [2, 11]: 0 to 29%; pest or weed control at 70 g/ha [2, 11]: 0 to 29%; pest or weed control at 140 g/ha [2, 11]: 0 to 29%; pest or weed control at 35 g/ha [2, 12]: 0 to 29%; pest or weed control at 70 g/ha [2, 12]: 0 to 29%; pest or weed control at 140 g/ha [2, 12]: 0 to 29%; pest or weed control at 35 g/ha [2, 13]: 95 to 100%; pest or weed control at 70 g/ha [2, 13]: 95 to 100%; pest or weed control at 140 g/ha [2, 13]: 95 to 100%; pest or weed control at 35 g/ha [2, 14]: 0 to 29%; pest or weed control at 70 g/ha [2, 14]: 75 to 84%; pest or weed control at 140 g/ha [2, 14]: 75 to 84%
